Results published in patent US10077288B2, “Hydroxystatin derivatives for the treatment of arthrosis” (Merck Patent GmbH, priority 2012, dated 2018).
*1 amine or outer side, *2 acyl side, *3 side chain or, on linkers, in order; H or OH if unused. Where a SMILES comes first, the peptide text is derived from it. [ ]: non-standard residue; d: D form. The star is where a group is joined. Ahppa(3S,4S) = O=C(C[C@H](O)[C@H](Cc1ccccc1)N[*:1])[*:2]; PhAc = O=C(Cc1ccccc1)*; OBn = c1ccc(CO*)cc1

These molecules were tested against T1, cathepsin D isolated from the human liver (Homo sapiens, UniProt P07339) (assay: In-vitro fluorescence assay for identification of cathepsin D inhibitors). Settings: human liver cathepsin D 1.4 nM, pH 5.5; read-out: CatD assay IC50-(M).
T1 construct: cathepsin D isolated from the human liver (Sigma-Aldrich); purchased Sigma-Aldrich; host or cells: human liver (tissue-derived, not recombinant)
T1 sequence (P07339 65-161 limits assumed): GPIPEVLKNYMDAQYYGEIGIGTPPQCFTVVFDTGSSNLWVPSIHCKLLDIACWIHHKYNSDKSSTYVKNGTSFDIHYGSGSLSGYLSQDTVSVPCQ
T1 sequence (P07339 169-412 limits assumed): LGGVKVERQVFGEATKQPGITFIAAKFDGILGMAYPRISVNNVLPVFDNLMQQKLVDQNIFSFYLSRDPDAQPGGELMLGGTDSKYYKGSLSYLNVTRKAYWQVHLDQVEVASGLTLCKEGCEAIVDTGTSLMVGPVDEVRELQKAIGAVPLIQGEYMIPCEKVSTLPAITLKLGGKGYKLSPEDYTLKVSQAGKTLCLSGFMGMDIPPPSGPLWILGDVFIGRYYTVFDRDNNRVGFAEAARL
Format: biochemical
Method: EXAMPLE 4: IN-VITRO FLUORESCENCE ASSAY FOR IDENTIFICATION OF CATHEPSIN D INHIBITORS
In order to identify modulators of cathepsin D activity, a continuous enzymatic test was carried out with a synthetic peptide which carries a fluorescent group (MCA=(7-methoxycoumarin-4-yl)acetyl) which is quenched by energy transfer from a Dpn (2,4 dinitrophenyl) group on the same molecule, in Greiner 384-well nb microtitre plates. Cleavage of the peptidic substrate by cathepsin D causes an increase in the fluorescence intensity. In order to determine the efficacy of substances, the time-dependent increase in the fluorescence intensity in the presence of the substance was compared with the time-dependent increase in fluorescence in the absence of substances. The reference substance used was pepstatin A (Sigma-Aldrich). The substrate used was MCA-GKPILFFRLK(Dnp)d-R—NH2 (Enzo Life Sciences, Lörrach). The enzyme employed was cathepsin D isolated from the human liver (Sigma-Aldrich) in a final concentration of 1.4 nM. The test was carried out in 100 mM sodium acetate buffer, 1.25% (v/v) of DMSO, 0.25% (w/v) of Chaps, pH 5.5. 2 μl of each substance solution with serially diluted substance concentration were added to in each case 4 μl of cathepsin D solution and incubated at room temperature for 10 min. The reaction was started by addition of 2 μl of substrate solution (final concentration 5 μM). After carrying out a starting-point fluorescence measurement (excitation wavelength 340 nm/emission wavelength 450 nm) using an Envision multilabel reader (Perkin Elmer), the reaction was incubated at room temperature for 60 min. The amount of peptide fragment cleaved off during the reaction time was subsequently measured by determination of the increase in the fluorescence intensity at 450 nm (excitation wavelength 340 nm).

IC50	SMILES
1e-07 M	CC[C@H](C)[C@H](NC(=O)C[C@H](O)[C@H](Cc1ccccc1)NC(=O)[C@@H](NC(=O)COc1ccc(C)c(C)c1)C(C)C)C(=O)N[C@H](C(=O)O)C(C)C [Compound 29, (S)-2-[(2S,3S)-2-((3S,4S)-4-{(S)-2-[2-(3,4-dimethylphenoxy)acetylamino]-3-methylbutyrylamino}-3-hydroxy-5-phenylpentanoylamino)-3-methylpentanoylamino]-3-methylbutyric acid]
8.5e-08 M	CC[C@H](C)[C@H](NC(=O)C[C@H](O)[C@H](Cc1ccccc1)NC(=O)[C@@H](NC(=O)Cc1cccc2ccccc12)C(C)C)C(=O)N[C@H](C(=O)O)C(C)C [Compound 30, (S)-2-((2S,3S)-2-{(3S,4S)-3-hydroxy-4-[(S)-3-methyl-2-(2-naphthalen-1-ylacetylamino)butyrylamino]-5-phenylpentanoylamino}-3-methylpentanoylamino)-3-methylbutyric acid]
1.6e-07 M	CC[C@H](C)[C@H](NC(=O)C[C@H](O)[C@H](Cc1ccccc1)NC(=O)[C@@H](NC(=O)c1cccc(-c2ccccc2)c1)C(C)C)C(=O)N[C@H](C(=O)O)C(C)C [Compound 31, (S)-2-[(2S,3S)-2-((3S,4S)-4-{(S)-2-[(biphenyl-3-carbonyl)amino]-3-methylbutyrylamino}-3-hydroxy-5-phenylpentanoylamino)-3-methylpentanoylamino]-3-methylbutyric acid]
3.2e-07 M	CC[C@H](C)[C@H](NC(=O)C[C@H](O)[C@H](Cc1ccccc1)NC(=O)[C@@H](NC(=O)C(c1ccccc1)c1ccccc1)C(C)C)C(=O)N[C@H](C(=O)OCc1ccccc1)C(C)C [Compound 32, benzyl (S)-2-{(2S,3S)-2-[(3S,4S)-4-((S)-2-diphenylacetylamino-3-methylbutyrylamino)-3-hydroxy-5-phenylpentanoylamino]-3-methylpentanoylamino}-3-methylbutyrate]
1.6e-08 M	CC[C@H](C)[C@H](NC(=O)C[C@H](O)[C@H](Cc1ccccc1)NC(=O)[C@@H](NC(=O)C(c1ccccc1)c1ccccc1)C(C)C)C(=O)N[C@H](C(=O)O)C(C)C [Compound 33, (S)-2-{(2S,3S)-2-[(3S,4S)-4-((S)-2-diphenylacetylamino-3-methyl-butyrylamino)-3-hydroxy-5-phenylpentanoylamino]-3-methylpentanoylamino}-3-methylbutyric acid]
2.7e-07 M	CCOc1cccc(CC(=O)N[C@H](C(=O)N[C@@H](Cc2ccccc2)[C@@H](O)CC(=O)N[C@H](C(=O)N[C@H](C(=O)OCc2ccccc2)C(C)C)[C@@H](C)CC)[C@@H](C)CC)c1 [Compound 34, benzly (S)-2-[(2S,3S)-2-((3S,4S)-4-{(S)-2-[2-(3-ethoxyphenyl)-acetylamino]-3-methyl-1-(S)-oxopentylamino}-3-hydroxy-5-phenylpentanoylamino)-3-methylpentanoylamino]-3-methylbutyrate]
5.8e-07 M	CC[C@H](C)[C@H](NC(=O)C[C@H](O)[C@H](Cc1ccccc1)NC(=O)[C@@H](NC(=O)[C@@H](O)c1ccccc1)C(C)C)C(=O)N[C@H](C(=O)OCc1ccccc1)C(C)C [Compound 35, benzly (S)-2-((2S,3S)-2-{(3S,4S)-3-hydroxy-4-[(S)-2-((S)-2-hydroxy-2-phenylacetylamino)-3-methylbutyrylamino]-5-phenylpentanoylamino}-3-methylpentanoylamino)-3-methylbutyrate]
4.3e-08 M	CCOc1cccc(CC(=O)N[C@H](C(=O)N[C@@H](Cc2ccccc2)[C@@H](O)CC(=O)N[C@H](C(=O)N[C@H](C(=O)O)C(C)C)[C@@H](C)CC)[C@@H](C)CC)c1 [Compound 36, (S)-2-[(2S,3S)-2-((3S,4S)-3-hydroxy-4-{(S)-methyl-1-(S)-2-[2-(3-ethoxyphenyl)acetylamino]-3-oxopentylamino}-5-phenylpentanoylamino)-3-methylpentanoylamino]-3-methylbutyric acid]
3.1e-07 M	CC[C@H](C)[C@H](NC(=O)C[C@H](O)[C@H](Cc1ccccc1)NC(=O)[C@@H](NC(=O)[C@@H](O)c1ccccc1)C(C)C)C(=O)N[C@H](C(=O)O)C(C)C [Compound 37, (S)-2-((2S,3S)-2-{(3S,4S)-3-hydroxy-4-[(S)-2-((S)-2-hydroxy-2-phenylacetylamino)-3-methylbutyrylamino]-5-phenylpentanoylamino}-3-methylpentanoylamino)-3-methylbutyric acid]
7e-06 M	CC[C@H](C)[C@H](NC(=O)C[C@H](O)[C@H](Cc1ccccc1)NC(=O)[C@@H](NC(=O)C(CC)(CC)CC)C(C)C)C(=O)N[C@H](C(=O)O)C(C)C [Compound 38, (S)-2-((2S,3S)-2-{(3S,4S)-4-[(S)-2-(2,2-diethylbutyrylamino)-3-methylbutyrylamino]-3-hydroxy-5-phenylpentanoylamino}-3-methylpentanoylamino)-3-methylbutyric acid]
1.7e-08 M	CCCOc1cccc(CC(=O)N[C@H](C(=O)N[C@@H](Cc2ccccc2)[C@@H](O)CC(=O)N[C@H](C(=O)N[C@H](C(=O)O)C(C)C)[C@@H](C)CC)[C@@H](C)CC)c1 [Compound 40, (S)-2-[(2S,3S)-2-((3S,4S)-3-hydroxy-4-{(2S,3S)-3-methyl-2-[2-(3-propoxyphenyl)acetylamino]pentanoylamino}-5-phenylpentanoylamino)-3-methylpentanoylamino]-3-methylbutyric acid]
4.8e-07 M	CC[C@H](C)[C@H](NC(=O)C[C@H](O)[C@H](Cc1ccccc1)NC(=O)[C@@H](NC(=O)Cc1cccc(OCCN)c1)[C@@H](C)CC)C(=O)N[C@H](C(=O)O)C(C)C [Compound 41, (S)-2-{(2S,3S)-2-[(3S,4S)-4-((S)-2-{2-[3-(2-aminoethoxy)phenyl]-acetylamino}-3-methyl-1-(S)-oxopentylamino)-3-hydroxy-5-phenylpentanoylamino]-3-methylpentanoylamino}-3-methylbutyric acid]
1.3e-09 M	CCC(CC)NC(=O)[C@@H](NC(=O)C[C@H](O)[C@H](Cc1ccccc1)NC(=O)[C@@H](NC(=O)[C@H](CC(C)C)NC(=O)CC(C)C)C(C)C)[C@@H](C)CC [Compound 42, N-[(1S,2S)-1-(1-ethylpropylcarbamoyl)-2-methylbutyl]-(2S,5S)-3-hydroxy-4-{(S)-3-methyl-2-[(S)-4-methyl-2-(3-methylbutyrylamino)-pentanoylamino]butyrylamino}-5-phenylpentanamide]
3.5e-09 M	CCC(CC)NC(=O)[C@@H](NC(=O)C[C@H](O)[C@H](Cc1ccccc1)NC(=O)[C@@H](NC(=O)[C@H](CC(C)C)NC(=O)Cc1ccccc1)C(C)C)[C@@H](C)CC [Compound 43, N-[(1S,2S)-1-(1-ethylpropylcarbamoyl)-2-methylbutyl]-(2S,5S)-3-hydroxy-4-[(S)-3-methyl-2-((S)-4-methyl-2-phenylacetylaminopentanoylamino)-1-oxobutylamino]-5-phenylpentanamide]
2.1e-09 M	CC[C@H](C)[C@H](NC(=O)C[C@H](O)[C@H](Cc1ccccc1)NC(=O)[C@@H](NC(=O)[C@H](CC(C)C)NC(=O)Cc1ccccc1)C(C)C)C(=O)N[C@H](C(=O)OCc1ccccc1)C(C)C [Compound 44, benzyl (S)-2-((2S,3S)-2-{(3S,4S)-3-hydroxy-4-[(S)-3-methyl-2-((S)-4-methyl-2-phenylacetylaminopentanoylamino)butyrylamino]-5-phenylpentanoylamino}-3-methylpentanoylamino)-3-methylbutyrate] (PhAc-LV[Ahppa(3S,4S)]IV-OBn)
3.5e-10 M	CC[C@H](C)[C@H](NC(=O)C[C@H](O)[C@H](Cc1ccccc1)NC(=O)[C@@H](NC(=O)[C@H](CC(C)C)NC(=O)Cc1ccccc1)C(C)C)C(=O)N[C@H](C(=O)O)C(C)C [Compound 45, (S)-2-((2S,3S)-2-{(3S,4S)-3-hydroxy-4-[(S)-3-methyl-2-((S)-4-methyl-2-phenylacetylaminopentanoylamino)butyrylamino]-5-phenylpentanoylamino}-3-methylpentanoylamino)-3-methylbutyric acid] (PhAc-LV[Ahppa(3S,4S)]IV-OH)

SMILES	IC50
CC[C@H](C)[C@H](NC(=O)C[C@H](O)[C@H](Cc1ccccc1)NC(=O)[C@@H](NC(=O)Cc1cccc(OCCNC(=O)OC(C)(C)C)c1)[C@@H](C)CC)C(=O)N[C@H](C(=O)O)C(C)C [Compound 39, (S)-2-{(2S,3S)-2-[(3S,4S)-4-((S)-2-{2-[3-(2-tert-butoxycarbonyl-aminoethoxy)phenyl]acetylamino}-3-methyl-1-(S)-oxopentylamino)-3-hydroxy-5-phenylpentanoylamino]-3-methylpentanoylamino}-3-methylbutyric acid]	3.9e-08 M
